Test results: PubChem BioAssay (NCI)
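Values below derive from 48-hour exposures of cells grown in 96-well plates, with endpoints linearly interpolated between the two concentrations bracketing the appropriate inhibition level. GI50 marks 50% less growth. TGI denotes the concentration required for complete inhibition of growth.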

Assays:
Test in all cases: growth of human tumour cells (NCI), 48 h
BT-549 breast = system: BT-549 breast
SK-MEL-2 melanoma = system: SK-MEL-2 melanoma
OVCAR-8 ovarian = system: OVCAR-8 ovarian
MDA-MB-435 = system: MDA-MB-435
NCI-H522 lung = system: NCI-H522 lung
PC-3 prostate = system: PC-3 prostate
RPMI-8226 leukemia = system: RPMI-8226 leukemia
A549 NSCLC = system: A549 NSCLC
HS 578T breast = system: HS 578T breast
ACHN renal = system: ACHN renal

Row | SMILES | GI50 (BT-549 breast) [µM] | TGI (BT-549 breast) [µM] | GI50 (SK-MEL-2 melanoma) [µM] | TGI (SK-MEL-2 melanoma) [µM] | GI50 (OVCAR-8 ovarian) [µM] | TGI (OVCAR-8 ovarian) [µM] | GI50 (MDA-MB-435) [µM] | TGI (MDA-MB-435) [µM] | GI50 (NCI-H522 lung) [µM] | TGI (NCI-H522 lung) [µM] | GI50 (PC-3 prostate) [µM] | TGI (PC-3 prostate) [µM] | GI50 (RPMI-8226 leukemia) [µM] | TGI (RPMI-8226 leukemia) [µM] | GI50 (A549 NSCLC) [µM] | TGI (A549 NSCLC) [µM] | GI50 (HS 578T breast) [µM] | TGI (HS 578T breast) [µM] | GI50 (ACHN renal) [µM] | TGI (ACHN renal) [µM]
1 | CN1CCN(c2nc(NCCCCNc3ccnc4cc(Cl)ccc34)c3ccccc3n2)CC1 | 3.45 | 15 | 2.11 | 4.48 | 4.25 | 20.1 | 1.97 | 4.25 | 2.82 | 9.32 | 4.44 | 17.6 | 1.8 | 5.43 | 5.19 | 20.5 | 5.48 | 26 | 2.52 | 7.32
2 | Cc1nc2cnc3cc(F)c(-c4ccc(Oc5ncccn5)cc4Cl)cc3c2n1[C@H]1CCN(C(=O)CO)C[C@@H]1F | 7.51 | 23.1 | 0.059 | 0.536 | 7.35 | > 100 | 0.0692 | > 60.7 | 7.17 | 32.7 | 28.9 | > 100 | 1.35 | 13.9 | 1.97 | > 100 | 13.4 | 77.3 | 8.19 | > 100
3 | O=C(/C=C/c1cccs1)c1ccc(Nc2nc(Nc3ccc(F)cc3)nc(Nc3ccc(F)cc3)n2)cc1 | 16.7 | 32.4 | 44.4 | > 100 | 21.7 | 51.2 | 24.5 | 67.6 | 20.5 | 46.4 | 19 | 44.4 | 20.9 | > 100 | 3.87 | 22.5 | 23.8 | 74.3 | 86.5 | > 100
4 | CC(C)[C@@]12C[C@@H](OC(=O)COC(=O)/C=C/c3ccccc3)[C@@](C)(O1)[C@@H]1CC[C@@H](C)[C@H]1[C@@H]2OC(=O)/C=C/c1ccccc1 | 0.508 | > 100 | > 100 | > 100 | 0.173 | > 100 | > 100 | > 100 | > 100 | > 100 | > 100 | > 100 | > 89.4 | > 100 | > 100 | > 100 | 0.0187 | 0.0774 | 0.0591 | 0.443
5 | COc1ccc2c(c1)c(-c1nc(-c3c[nH]c4ncccc34)cs1)cn2CCCCN1CCOCC1 | 3.74 | 15.5 | 1.97 | 3.83 |  |  | 1.7 | 3.17 | 2.34 | 4.31 | 1.75 | 4.26 | 1.99 | 4.72 | 2.23 | 4.28 | 2.05 | 5.82 | 1.79 | 3.4
6 | COc1cc(C(O)c2nc3ccccc3s2)cc(OC)c1OC (stereo not given) | 60.6 | > 100 | > 100 | > 100 | > 100 | > 100 | 20.4 | > 100 | 29.2 | > 100 | 15.9 | > 100 | 7.9 | > 100 | 86.7 | > 100 | 40.5 | > 100 | 65.5 | > 100
7 | Cn1ccnc1C(=O)/C=C/c1ccc(CC(=O)Nc2ccc(S(F)(F)(F)(F)F)cc2)cc1 | 2.5 | 5.29 | 3.59 | 10 | 4.94 | 16.5 | 4.04 | 12.5 | 3.43 | 6.91 | 0.534 | 2.03 | 0.517 | 2.03 | 3.32 | 9.15 | 4.91 | 16.4 | 2.45 | 4.82
8 | O=C1c2ccc3c4c5ccc(c24)C(=O)N1CCCOCCCCOCCCNCc1ccc(cc1)CNCCCOCCCCOCCCN(C3=O)C5=O | 1.62 | 4.87 | 0.861 | 1.73 | 1.06 | 2.74 | 0.873 | 1.59 | 0.854 | 1.79 | 0.904 | 2.76 | 0.93 | 2.49 | 1.01 | 2.07 | 1.4 | 5.32 | 0.859 | 1.57
9 | C=CC1=C[C@@H]2[C@@H]3O[C@]4(CC[C@H](O4)[C@@H](C)C[C@@H](O)C3=O)C[C@H](O)C3=NCC[C@@]32CC1 | < 0.00333 | < 0.00333 | < 0.00333 | 0.0117 | < 0.00333 | 0.044 | < 0.00333 | 0.00334 | < 0.00333 | 0.00353 | < 0.00333 | 0.0122 | < 0.00333 | < 0.00333 | < 0.00333 | 0.00459 | < 0.00333 | < 0.00333 | < 0.00333 | < 0.00333
10 | NC1=C(Br)C(=O)c2ncccc2C1=O | 1.16 | 2.57 |  | 1.49 |  | 2.24 | 0.168 | 0.313 |  | 0.766 | 1.65 | 9.64 |  | 3.81 |  | 2.68 | 0.37 | 2.84 |  | 1.62
11 | CN(CC(=O)O)c1ccc(/C=C/c2ccnc3ccccc23)cc1 |  | 70.4 |  | 44.6 |  | > 100 |  | 51.1 |  | 26.5 |  | > 100 |  | 57.5 |  | 61.4 |  | 75 |  | > 100
12 | COC1(O)C(=O)c2ccccc2OC1(OC)c1ccccc1 (stereo not given) |  | > 100 |  | > 100 |  | > 100 |  | > 100 |  | > 100 |  | > 100 |  | > 100 |  | > 100 |  | > 100 |  | > 100
13 | O=C(CCCCCCSc1nc(-c2ccccc2)cc(-c2ccccc2)n1)NO | 3.16 | 18.4 | 3.94 | 21 | 1.79 | 16.9 | 1.98 | 11.2 | 1.07 | 7.72 | 2.24 | 13.4 | 0.405 | 3.1 | 2.45 | 10.4 | 1.56 | 14.5 | 1.45 | 3.16
14 | COc1ccn2c(C(C)=O)cc(C(=O)c3ccc4c(c3)Sc3ccccc3N4)c2c1 | 0.134 | > 100 |  | > 100 | 0.14 | > 100 | 0.019 | 0.0454 | 0.0321 | 0.248 | 0.129 | > 100 | 0.141 | > 100 | 0.122 | > 100 | 0.182 | > 100 | 0.145 | > 100
15 | Nc1ncnc2c1ncn2CC(O)C(=O)O (stereo not given) |  | > 100 |  | > 100 |  | > 100 |  | > 100 |  | > 100 |  | > 100 |  | > 100 |  | > 100 |  | > 100 |  | > 100
16 | COc1ccc(-c2cnnn2-c2cc(OC)c3c(c2)OCO3)cc1 | 0.101 | 28.6 | 0.0955 | 90.4 | 0.304 | > 100 | 0.0202 | 0.0512 | 0.0354 | 0.525 | 0.167 | > 100 | 0.256 | > 100 | 0.107 | > 100 | 0.186 | > 100 | 0.891 | > 100
17 | CCc1ccccc1N1CCN(C(=O)c2cc(OC)c(OC)c(OC)c2)CC1 |  | 5.87 |  | 2.78 |  | 13.6 |  | < 0.0113 |  | 0.029 |  | > 9.26 |  | 23.1 |  | 72.4 |  | 0.0608 |  | 66.4
18 | C=CCNCCCN1C(=O)c2ccc3c4c(ccc(c24)C1=O)C(=O)N(CCCNCC=C)C3=O | 1.78 | 3.63 | 0.364 | 1.7 | 0.312 | 2.11 | 0.199 | 0.434 | 0.336 | 1.34 | 0.589 | 11 | 0.385 | 3.55 | 0.226 | 0.605 | 1.3 | 5.16 | 0.268 | 4.38
19 | O=C1/C(=C/c2ccc([N+](=O)[O-])o2)Oc2ccc(Br)cc21 | 1.87 | 3.5 | 2.24 | 4.43 | 3.01 | 9.32 | 1.9 | 4.03 | 1.88 | 3.35 | 3.52 | 15.2 | 2.32 | 6.03 | 18.5 | 35.3 | 3.91 | 26.9 | 1.85 | 3.77
20 | CN(c1ccc(NC(=O)Nc2ccc(OC(F)(F)F)cc2)cc1)c1ccnc(Nc2cccc(S(N)(=O)=O)c2)n1 | 4.31 | 8.3 | 4.57 | 9.7 | 3.07 | 7.17 | 3.15 | 6.68 | 3.41 | 7.36 | 1.45 | 5.72 | 2.7 | 10.1 | 2.68 | 9.83 | 4.14 | 17 | 5.42 | 15.5
21 | Cc1nc2sc(C(=O)Nc3cccc4ccccc34)c(N)c2cc1C(=O)/C=C/c1ccccc1 | 0.413 | 1.92 | 0.501 | > 39 | 0.534 | > 13.4 | 0.116 | 0.274 | 0.215 | 2.11 | 0.282 | 4.48 | 0.14 | 0.5 | 0.463 | > 50 | 0.281 | > 50 | 0.304 | 1.25
22 | COc1ccc(C(=O)/C=C/c2c(C(F)(F)F)nc3sccn23)cc1OC | 3.25 | > 100 | 4.08 | 92.5 | 2.4 | > 100 | 1.85 | > 100 | 2.91 | 80.7 | 5.39 | > 100 | 1.62 | > 100 | 4.65 | > 100 | 2.51 | 16.8 | 5.1 | > 100
23 | COc1ccc(C/C(C)=C(\c2ccc(OCCN3CCOCC3)cc2)c2ccc(OC(=O)Cc3ccccc3)cc2)cc1 | 0.502 | 0.996 | 0.657 | 1.25 | 1.07 | 11.3 | 0.632 | 1.34 | 0.564 | 1.08 | 0.747 | 2.97 | 0.531 | 1.31 | 1.02 | 11.2 | 0.658 | 1.67 | 0.99 | 3.38
24 | NC(=O)c1cc([N+](=O)[O-])c(Cl)c([N+](=O)[O-])c1 | 2.52 | 5.56 | 13.7 | 27.8 | 1.87 | 3.63 | 5.99 | 19.2 | 1.94 | 3.57 | 1.91 | 4.26 | 2.32 | 5.7 | 16.9 | 32.2 | 11.9 | 29.4 | 1.87 | 3.37
25 | N=c1c2c(-c3ccccc3)c(-c3ccccc3)n(Cc3ccccc3)c2ncn1CCCO | 7.81 | 21.2 | 1.77 | 5.64 | 0.739 | 22.2 | 1.61 | 16.8 | 0.756 | 3.46 | 1.62 | 12.2 | 2.86 | 16 | 0.561 | 15.5 | 8.36 | > 55.9 | 0.457 | 14.3
26 | CC(=O)NCCSC(=O)c1ccccc1 |  | 3.75 |  | 0.827 |  | 0.81 |  | 0.371 |  |  |  | 4.07 |  | 2.26 |  | 2.06 |  | 5.52 |  | 0.0971
